Entries after “also recorded” stand apart in the source; their conditions may differ.
Columns and labels:
Format in all cases: in vivo
rat kidneys [1] = experiment: Rat kidney transplantation after cold storage in gas-saturated Celsior solution: renal function (creatinine clearance, urinary albumin); settings: for overall effect on the preservation of a renal graft: compared with the other experimental groups; for level of albumin in the urine (urinary albumin): kidney stored 6 h at 4 °C, atmospheric pressure, in gas-saturated Celsior, days 7 and 14 after transplantation
Procedure: In accordance with the present invention, argon gas was dissolved in a liquid organ preservation solution available on the market, i.e. the CELSIOR solution, the composition of which is given in table 1, in order to obtain a liquid formulation in accordance with the present invention.
For the purposes of comparison, other gases, i.e. xenon, air and nitrogen, were dissolved in the same type of liquid solution.
(§1) In order to evaluate the renal graft preservation properties of argon or other gases, rat kidneys were removed and stored in a gas-saturated liquid solution according to the present invention.
(§2) After six hours of organ preservation at a temperature of 4° C. and at atmospheric pressure, the rat kidneys are transplanted and the survival time, renal function and reperfusion/ischemia injuries are studied by means of biochemical and histological analyses.
On days 0 (pretransplantation), 7 and 14 (after transplantation), biochemical analyses, i.e. creatinine clearance and urinary albumin, are carried out in the manner described by M. Yin et al., in “Carolina rinse solution minimizes kidney injury and improves graft function and survival after prolonged cold ischemia.” Transplantation 2002; 73:1410-1420).
Creatinine clearance is a parameter that is used to evaluate renal function. A high clearance corresponds to good renal function, while the presence of albumin in the urine (urinary albumin) indicates renal damage since, normally, there is no albumin in the urine when the kidney is normal.

rat kidneys [2] = experiment: Histology of transplanted rat kidneys (hematoxylin-eosin-safran, optical microscopy); settings: day 14 after transplantation; kidney stored 6 h at 4 °C in gas-saturated solution
Procedure: as §1, §2
On day 14 after transplantation, the kidneys are removed, weighed and cut into blocks. The kidneys are then fixed with a buffered 4% formaldehyde infusion for 24 h and they are embedded in paraffin. Five-micrometer sections are obtained from the blocks and stained with hematoxylin-eosin-safran in order to examine them by optical microscopy.

rat kidneys [3] = experiment: Immunohistochemistry of transplanted rat kidneys (anti-active caspase-3, anti-CD10); settings: day 14 after transplantation; for active caspase-3 expression (immunohistochemistry): marker for apoptosis
Procedure: In order to evaluate the renal graft preservation properties of argon or other gases, rat kidneys were removed and stored in a gas-saturated liquid solution according to the present invention. After six hours of organ preservation at a temperature of 4° C. and at atmospheric pressure, the rat kidneys are transplanted and the survival time, renal function and reperfusion/ischemia injuries are studied by means of biochemical and histological analyses. Immunodetections were carried out on serial cryostat sections 5 μm thick, using certain specific antibodies, i.e. anti-active caspase-3 and anti-CD10. The kidneys of a normal rat are used as control. After having been rinsed, the sections are incubated for 30 minutes with biotinylated secondary antibodies and they are then visualized using avidin-biotin peroxidase.

SMILES | overall effect on the preservation of a renal graft (rat kidneys [1]) | level of albumin in the urine (urinary albumin) (rat kidneys [1]) | histological observations of transverse kidney sections (rat kidneys [2]) | active caspase-3 expression (immunohistochemistry) (rat kidneys [3]) | CD10 expression (immunohistochemistry) (rat kidneys [3]; weak CD10 expression corresponds to a damaged kidney)
[Ar] [argon] | very positive and advantageous effects | much lower than the levels of albumin (urinary albumin) obtained with the other transplanted kidneys | the architectural integrity of the kidney is preserved without any obvious glomerular modification; also recorded: intact normal morphology as in the control group, with no modification nor any necrosis | discrete and focal losses | discrete and focal losses of CD 10 expression
N#N [nitrogen, reference compound] |  |  |  | significant expression of active caspase-3 | 
[Xe] [xenon, reference compound] | some good effects | an effect greater than that which was obtained with the controls, but which is less than that obtained with argon |  | the active caspase-3 expression has been lost because of the serious acute tubular necrosis | 

From patent publication US20120301866A1, “LIQUID FORMULATION HAVING DISSOLVED GASES USEFUL FOR PRESERVING BIOLOGICAL MATERIAL” (L'Air Liquide, Société Anonyme pour I'Etude et …, priority 2010, published 2012)
